From PubChem BioAssay AID179 (DTP/NCI, 2004)
Calls of active or inactive are those of the source.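 How the source made its calls: active means compounds giving half or more protection of infected cells from virus-caused growth loss, again on retest; inactive means the rest.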 Where a SMILES comes first, the peptide text is derived from it. The star is where a group is joined. Boc = CC(C)(C)OC(=O)*; OBn = c1ccc(CO*)cc1

System: CEM cells HIV-1 protection, formazan growth assay
Assay: NCI AIDS Antiviral Assay
Settings: for IC50: measured here: growth of uninfected CEM cells
How it was run: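 Soluble formazan readout of cell growth; CEM cells ± HIV-1; 5 drug concs. ≥50% protection → retest; ≥50% again = moderately active; reproducible 100% = confirmed active.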

| Compound | EC50 | IC50 | outcome |
| --- | --- | --- | --- |
| COC(=O)N1CC=CC2(CCOCc3ccccc3)CC[C@@](O)(c3ccccc3NC(=O)C(C)(C)C)C(=O)C12 (stereo partly specified) | > 35.5 µM | > 35.5 µM | – |
| CSc1nc2c(nc(C)c(=O)n2C2OCC(OC(C)=O)C(OC(C)=O)C2OC(C)=O)c(=O)[nH]1 (stereo unspecified) | > 513 µM | > 513 µM | – |
| O=C1C(c2ccccc2)=C(O)c2cccc3cccc1c23 | > 912 µM | 85.1 µM | – |
| CCOC(=O)/C(C1=NCCN1)=C(\O)c1ccccc1 | 468 µM | 912 µM | – |
| O=C([O][Bi]([c]1ccccc1)[c]1ccccc1)c1ccccc1 | > 38.9 µM | > 38.9 µM | – |
| O=C(Nc1cc(Cl)c(Cl)cc1NC(=O)C(Cl)(Cl)Cl)C(Cl)(Cl)Cl | > 200 µM | 0.417 µM | – |
| CCCC(=O)c1ccc(=O)n(C)c1 | > 1380 µM | 1070 µM | – |
| O=C(C(Cl)=C(N1CCCCC1)N1CCCCC1)C(Cl)Cl | > 200 µM | 174 µM | – |
| C=C=C(C(=O)OC)S(=O)c1ccc([N+](=O)[O-])cc1[N+](=O)[O-] (stereo unspecified) | – | – | inactive |
| O=C(O)CCCCCCCCCCCc1ccccc1 | > 200 µM | 18.6 µM | – |
| Cc1n[nH]c(=O)n1C1CCCC1 | > 200 µM | > 200 µM | – |
| O=C1OC(=O)c2cc(S(=O)(=O)c3ccc4c(c3)C(=O)OC4=O)ccc21 | > 200 µM | > 200 µM | – |
| COc1ccc(OC)c2c3c(ccc12)C1(CCc2c(C)cccc21)OC3=O (stereo unspecified) | > 55 µM | 8.13 µM | – |
| CSc1nnc2n(C)c3c(=O)n(C)c(=O)n(C)c3n12 | > 200 µM | > 200 µM | – |
| COC(=O)CNC(=O)CNC(=O)CSc1nnc(COc2ccc(Cl)cc2)n1-c1ccccc1 | > 200 µM | 30.9 µM | – |
| COc1ccc(C2C3=C(N=C4SC(C(C)=O)=C(C)N42)c2ccccc2CC3)cc1 (stereo unspecified) | > 200 µM | 17.4 µM | – |
| COc1ccc(N2C(=O)C3c4[nH]c5ccc(OCc6ccccc6)cc5c4C4CCC(C(C)C)CC4C3C2=O)cc1 (stereo unspecified) | > 100 µM | > 100 µM | – |
| c1ccc([P+](Cc2ccc(C[P+](c3ccccc3)(c3ccccc3)c3ccccc3)cc2)(c2ccccc2)c2ccccc2)cc1 | 17.4 µM | 38 µM | – |
| CCOC(=O)NC(=O)c1cn(CCOC(=O)NCCCCCCNC(=O)OCCn2cc(C(=O)NC(=O)OCC)c(=O)[nH]c2=O)c(=O)[nH]c1=O | – | – | inactive |
| CC(=O)C1=C(O)CCC1=O | > 200 µM | > 200 µM | – |
| c1ccc([P+](Cc2cccc(C[P+](c3ccccc3)(c3ccccc3)c3ccccc3)c2)(c2ccccc2)c2ccccc2)cc1 | > 200 µM | 85.1 µM | – |

| Compound | EC50 | IC50 | outcome |
| --- | --- | --- | --- |
| O=C(c1ccccc1)C1C(=O)c2ccccc2C1=O | > 105 µM | > 105 µM | – |
| Cc1[nH]c2[nH]c(=S)nc(NC(N)=S)c2c1Cc1ccccc1 | > 100 µM | 41.7 µM | – |
| O=C(/C=C/c1cc(Cl)cc(Cl)c1O)c1cccc(O)c1 | – | – | inactive |
| CCOC(=O)C1C(=O)c2cccc(OC)c2C2COC(=O)N12 (stereo unspecified) | > 251 µM | 229 µM | – |
| Cc1cccc(C[P+](c2ccccc2)(c2ccccc2)c2ccccc2)c1 | > 200 µM | 0.631 µM | – |
| O=c1[nH]c(=O)c2c([nH]1)[nH]c1ccccc12 | > 200 µM | > 200 µM | – |
| O=C1Cc2c([nH]c3ccccc23)-c2cc(Br)ccc2N1 | > 41.7 µM | > 41.7 µM | – |
| COc1ccc2c(CCNC(=O)/C=C/c3ccccc3)c(C(C)=O)[nH]c2c1[N+](=O)[O-] | – | – | inactive |
| O=P1(Oc2ccccc2)Nc2cc(Cl)ccc2S1 (stereo unspecified) | > 45.7 µM | 22.4 µM | – |
| NC(=O)C1C2CC3C(NC(=O)C31)C2O (stereo unspecified) | > 200 µM | > 200 µM | – |
| CC(C)=CCC[C@@H](C)C1=C(O)C(O)C(C)=C2N=C(c3ccccc3)C(=O)OC21 (stereo partly specified) | > 200 µM | 3.8 µM | – |
| O=C(Nc1ccccc1)C(c1ccccc1)N(Nc1ccccc1)c1ccccc1 (stereo unspecified) | – | – | inactive |
| O=C1C=C(Nc2ccc(Cl)cc2Cl)C(=O)C=C1Nc1ccc(Cl)cc1Cl | > 200 µM | > 200 µM | – |
| Oc1cccc(/C=C/c2cnnc3ccccc23)c1 | > 200 µM | 37.2 µM | – |
| CC(C)CCC[C@@H](C)[C@H]1CC[C@H]2[C@@H]3CC=C4CC(OC(=O)OC5CCC6(C)CC7C=CC6(OO7)C5(C)C)CC[C@]4(C)[C@H]3CC[C@]12C (stereo partly specified) | > 100 µM | > 100 µM | – |
| CCCCCCCCCCCCCCCCCc1nnc(N)o1 | – | – | inactive |
| C(=Nc1ccc(C2=NCCN2)cc1)c1ccc(C=Nc2ccc(C3=NCCN3)cc2)cc1 | > 200 µM | 11.7 µM | – |
| CC(C)(C)[C@H]1CO[C@]2(C)[C@@H]3C[C@@H]3C(=O)N12 | – | – | inactive |
| COC(=O)C1C=CCON2CCc3c(n(S(=O)(=O)c4ccccc4)c4ccccc34)C12 (stereo unspecified) | > 22.9 µM | > 22.9 µM | – |
| Cc1nc2nnc(C)n2c2c1C(=O)Nc1ccccc1N2 | > 200 µM | > 200 µM | – |
| O=C(Cc1ccccc1)N/N=C(/c1nc2ccc([N+](=O)[O-])cc2[nH]c1=O)C(O)c1ccc(C(O)/C(=N/NC(=O)Cc2ccccc2)c2nc3ccc([N+](=O)[O-])cc3[nH]c2=O)cc1 (stereo unspecified) | > 155 µM | 52.5 µM | – |

| Compound | EC50 | IC50 | outcome |
| --- | --- | --- | --- |
| O=S(=O)(O)CC(S(=O)(=O)O)S(=O)(=O)O | > 200 µM | > 200 µM | – |
| CC(C)C1CN1CC(O)Cn1ccnc1[N+](=O)[O-] (stereo unspecified) | > 200 µM | > 200 µM | – |
| Nc1ccc2c(c1)Oc1c(F)c(F)cc3c(=O)c(C(=O)O)cn-2c13 | > 11.5 µM | 11.2 µM | – |
| c1ccc([P+](CCOCC[P+](c2ccccc2)(c2ccccc2)c2ccccc2)(c2ccccc2)c2ccccc2)cc1 | > 200 µM | 49 µM | – |
| O=C(CCCCCCCCC(=O)N1C(=O)CC(=O)N(c2ccccc2)C1=S)N1C(=O)CC(=O)N(c2ccccc2)C1=S | > 200 µM | 123 µM | – |
| Cc1ccc(/C=C/CO)cc1 | – | – | inactive |
| OCCNCCN=C1CCC(=NCCNCCO)CC1 | > 200 µM | 32.4 µM | – |
| CN=c1c2c(c3[nH]c4ccccc4c4cnc1c34)NCCC2=O | > 200 µM | 1.41 µM | – |
| COc1cc(NC=O)c2c(c1)SCCC(=O)N2 | > 200 µM | > 200 µM | – |
| CCOC(=O)NN(C(=O)OCC)C(C(=O)c1ccccc1)N(NC(=O)OCC)C(=O)OCC | > 200 µM | > 200 µM | – |
| COC(=O)CCCC=C(c1cc(Cl)c(OC)c(C(=O)OC)c1)c1cc(Cl)c(OC)c(C(=O)OC)c1 | 1.62 µM | 21.4 µM | – |
| O=C1NC(N/N=C\c2ccccc2)=N/C1=C/c1ccc(Cl)cc1 | – | – | inactive |
| CSc1n[nH]c(N)c1C(=O)Nc1ccc(C)cc1 | > 200 µM | 95.5 µM | – |
| c1ccc(COc2cccc3ccc[n+](Cc4ccccc4)c23)cc1 | > 251 µM | 4.68 µM | – |
| COc1ccc(-c2c(C#N)c(NC(=S)NC(=O)c3ccccc3)nc3c2CCCC3)cc1OC | > 200 µM | 115 µM | – |
| Cc1ccc(/C=C2\CN(C)CC3=C2NC(=S)NC3c2ccc(C)cc2)cc1 (stereo unspecified) | > 200 µM | 25.1 µM | – |
| Cc1ccc(S(=O)(=O)N(CCN2C(=O)c3ccccc3C2=O)c2cc3c4c(c2)Oc2cc(N(CCN5C(=O)c6ccccc6C5=O)S(=O)(=O)c5ccc(C)cc5)cc5c2C4(C)c2c(cc(N(CCN4C(=O)c6ccccc6C4=O)S(=O)(=O)c4ccc(C)cc4)cc2O5)O3)cc1 | > 100 µM | 64.6 µM | – |
| O=NN1C(c2ccccc2)CC(=NO)CC1c1ccccc1 (stereo unspecified) | > 200 µM | 129 µM | – |
| CO[C@@H]1[C@@H](OC2OC(C)C(OC3CC(C)(O)C(OC(=O)CC(C)C)C(C)O3)C(N(C)C)C2O)[C@@H](CC=O)C[C@@H](C)C(=O)/C=C/C2O[C@H]2C[C@@H](C)OC(=O)C[C@H]1OC(C)=O (stereo partly specified) | > 148 µM | 7.76 µM | – |
| Cc1cn([C@H]2C[C@@H]3[C@@H](COC(CCl)N3O)O2)c(=O)[nH]c1=O (stereo partly specified) | > 200 µM | 31.6 µM | – |
| O=C1CCC2(c3ccc(F)cc3)Nc3ncncc3N12 (stereo unspecified) | > 347 µM | > 347 µM | – |

| Compound | EC50 | IC50 | outcome |
| --- | --- | --- | --- |
| CCOC(=O)C1Cc2cc(C)c(C)cc2N(C)C1=O (stereo unspecified) | > 200 µM | > 200 µM | – |
| O=C1OCc2c1[nH]c(=O)[nH]c2=O | > 200 µM | > 200 µM | – |
| CC(=O)O[C@H]1CC[C@@]2(C)C(=CC[C@@H]3C2CC[C@]2(C)Nc4c(cnn4-c4ccccc4)CC32)C1 (stereo partly specified) | – | – | inactive |
| S=C(NCc1ccccn1)N/N=C/c1ccccn1 | > 0.2 µM | 0.00794 µM | – |
| COC1(OC)CC2C(=O)N(Cc3ccccc3)C1C(S(=O)(=O)c1ccccc1)C2C(C)S(=O)(=O)c1ccccc1 (stereo unspecified) | > 23.4 µM | > 23.4 µM | – |
| Nc1ccc(C(=O)NN2C(=O)C(Cl)C2c2cccc([N+](=O)[O-])c2)cc1 (stereo unspecified) | > 200 µM | 10.2 µM | – |
| Nc1c2c([nH]c(=O)c1N)CCC2 | > 200 µM | > 200 µM | – |
| CC(NC(=O)C(NC(=O)OC(C)(C)C)C(C)C)C(=O)N1CCCC1C(=O)NCC(=O)NC(C(=O)NCC(=O)OCc1ccccc1)C(C)C (stereo unspecified) (Boc-VAPGVG-OBn; configuration not given here) | > 200 µM | > 200 µM | – |
| CC1(C)OC(C(C)(C)O)C(C(C)(C)O)O1 (stereo unspecified) | > 200 µM | > 200 µM | – |
| CSc1nc(C#N)c(N)n1C | > 200 µM | > 200 µM | – |
| CCOC(=O)/C(=C/c1ccc([N+](=O)[O-])cc1)C(=O)c1ccccc1 | > 22.4 µM | 13.5 µM | – |
| CC(=O)CC(O)(C(F)(F)Cl)C(F)(Cl)Cl (stereo unspecified) | > 200 µM | > 200 µM | – |
| CC1SC(=S)N(c2ccc(Cl)cc2)C1=O (stereo unspecified) | > 138 µM | 67.6 µM | – |
| Nc1ccc(Oc2ccc(S(=O)(=O)c3ccc(Oc4ccc(N)cc4N)cc3)cc2)c(N)c1 | > 200 µM | 120 µM | – |
| CCOC(=O)Cn1c2ccccc2c(=O)c2cc(C)c(C)c(C#N)c21 | > 21.4 µM | > 21.4 µM | – |
| CN(C)/C=C/C(=CC=[N+](C)C)/C=C/N(C)C | – | – | inactive |
| c1ccc2c3csc4ccccc4c-3nc2c1 | – | – | inactive |
| O=C1C(Cl)C(c2ccccc2)N1n1cnc2ccccc2c1=O (stereo unspecified) | > 79.4 µM | > 79.4 µM | – |
| O=c1[nH]c2cc(Cl)ccc2nc1/C(=N\Nc1ccccc1)C(O)c1ccc2c(c1)OCO2 (stereo unspecified) | > 209 µM | > 209 µM | – |
| O=C(O)C1C2CC(C1C(=O)O)C1C2N1S(=O)(=O)c1ccccc1 (stereo unspecified) | > 741 µM | > 741 µM | – |
| O=C1NC2(C=Cc3c(ccc4ccccc34)O2)Oc2ccccc21 (stereo unspecified) | > 11.5 µM | > 11.5 µM | – |
